Test results as given in patent US20230271954A1 (Gossamer Bio Services, Inc., priority 2020, published 2023).

Key:
DGKα = DGKα (Homo sapiens, UniProt P23743); test: DGKα biochemical assay (ADP-Glo); conditions: read-out: DGK α IC50
In short: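 ADP-Glo kinase assay using OAG/PS (1:2) lipid substrate, sonicated, in HEPES pH 7.0 buffer with MgCl2, CaCl2, DTT, BSA, Triton X-100. Enzyme preincubated with compound 30 min at RT; substrate with ATP (DGKα: 400 μM) added, 45 min RT. Luminescence read; % inhibition vs DMSO and no-enzyme controls.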

DGKζ = target: T1, DGKζ (Homo sapiens, UniProt Q13574); test: DGKζ biochemical assay (ADP-Glo); conditions: read-out: DGK ζ IC50
T1 construct: purchased Carna 12-110
T1 sequence (Q13574 1-929 isoform Q13574-4): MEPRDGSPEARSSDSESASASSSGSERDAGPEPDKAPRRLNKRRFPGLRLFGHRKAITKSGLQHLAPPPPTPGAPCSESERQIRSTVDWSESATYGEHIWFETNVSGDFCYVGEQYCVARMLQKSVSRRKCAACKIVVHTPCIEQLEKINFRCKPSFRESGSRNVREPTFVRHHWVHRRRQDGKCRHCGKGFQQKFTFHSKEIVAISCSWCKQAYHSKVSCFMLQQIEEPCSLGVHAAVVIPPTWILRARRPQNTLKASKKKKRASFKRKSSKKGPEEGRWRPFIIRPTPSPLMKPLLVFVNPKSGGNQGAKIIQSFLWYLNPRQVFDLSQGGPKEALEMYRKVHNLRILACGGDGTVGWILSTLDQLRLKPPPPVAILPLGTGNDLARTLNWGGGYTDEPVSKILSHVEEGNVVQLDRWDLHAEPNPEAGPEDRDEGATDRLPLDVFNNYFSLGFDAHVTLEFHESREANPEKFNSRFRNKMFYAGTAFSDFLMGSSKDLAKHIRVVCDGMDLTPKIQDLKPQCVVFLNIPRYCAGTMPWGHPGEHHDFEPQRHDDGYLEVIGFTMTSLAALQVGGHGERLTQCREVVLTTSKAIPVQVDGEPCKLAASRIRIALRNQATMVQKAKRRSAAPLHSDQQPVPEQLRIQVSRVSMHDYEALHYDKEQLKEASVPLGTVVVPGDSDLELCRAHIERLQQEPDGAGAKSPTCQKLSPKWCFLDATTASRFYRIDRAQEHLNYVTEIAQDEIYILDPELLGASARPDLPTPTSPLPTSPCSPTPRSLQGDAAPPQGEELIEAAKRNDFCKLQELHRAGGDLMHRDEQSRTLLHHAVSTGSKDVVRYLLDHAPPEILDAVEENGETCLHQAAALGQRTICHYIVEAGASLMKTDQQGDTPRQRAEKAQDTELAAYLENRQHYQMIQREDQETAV

Sequence of DGKα (P23743 whole entry): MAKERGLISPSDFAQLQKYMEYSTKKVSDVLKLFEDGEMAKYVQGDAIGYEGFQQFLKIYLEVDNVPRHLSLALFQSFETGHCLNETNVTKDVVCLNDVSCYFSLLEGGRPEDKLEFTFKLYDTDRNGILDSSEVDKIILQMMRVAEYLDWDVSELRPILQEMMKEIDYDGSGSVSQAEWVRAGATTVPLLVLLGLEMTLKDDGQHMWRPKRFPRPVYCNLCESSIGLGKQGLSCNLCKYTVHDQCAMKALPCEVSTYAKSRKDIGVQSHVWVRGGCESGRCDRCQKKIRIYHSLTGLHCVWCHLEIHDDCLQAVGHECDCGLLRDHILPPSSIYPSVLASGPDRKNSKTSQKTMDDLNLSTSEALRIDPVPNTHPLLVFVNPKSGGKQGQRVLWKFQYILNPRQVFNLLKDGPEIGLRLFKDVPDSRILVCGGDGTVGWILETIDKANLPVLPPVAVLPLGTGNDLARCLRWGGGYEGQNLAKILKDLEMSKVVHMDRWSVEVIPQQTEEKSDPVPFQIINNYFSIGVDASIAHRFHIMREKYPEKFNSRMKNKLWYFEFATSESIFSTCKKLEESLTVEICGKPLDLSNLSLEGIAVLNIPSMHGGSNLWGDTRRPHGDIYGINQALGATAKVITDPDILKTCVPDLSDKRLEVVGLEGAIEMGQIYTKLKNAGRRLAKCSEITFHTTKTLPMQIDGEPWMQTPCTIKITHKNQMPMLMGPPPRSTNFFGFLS

Cn1c(=O)c(C#N)c(N(C)[C@H]2CC[C@@H](N(CC3CC3)c3cccc(F)c3)CC2)c2nc(Cl)ccc21 [Example 22, cis-6-chloro-4-((4-((cyclopropylmethyl)(3-fluorophenyl)amino)cyclohexyl)(methyl)amino)-1-methyl-2-oxo-1,2-dihydro-1,5-naphthyridine-3-carbonitrile]
IC50 (DGKα): ≥ 1 µM | IC50 (DGKζ): ≥ 1 µM

Cn1c(=O)c(C#N)c(N(C)[C@H]2CC[C@H](N(CC3CC3)c3cccc(F)c3)CC2)c2nc(Cl)ccc21 [Example 23, trans-6-chloro-4-((4-((cyclopropylmethyl)(3-fluorophenyl)amino)cyclohexyl)(methyl)amino)-1-methyl-2-oxo-1,2-dihydro-1,5-naphthyridine-3-carbonitrile]
IC50 (DGKα): 0.01 to 0.1 µM | IC50 (DGKζ): 0.1 to 1 µM

Cn1c(=O)cc(N(C)[C@H]2CC[C@@H](N(CC3CC3)c3cccc(F)c3)CC2)c2nc(C#N)ccc21 [Example 24, cis-8-((4-((cyclopropylmethyl)(3-fluorophenyl)amino)cyclohexyl)(methyl)amino)-5-methyl-6-oxo-5,6-dihydro-1,5-naphthyridine-2-carbonitrile]
IC50 (DGKα): 0.01 to 0.1 µM | IC50 (DGKζ): ≥ 1 µM

Cn1c(=O)cc(N(C)[C@H]2CC[C@H](N(CC3CC3)c3cccc(F)c3)CC2)c2nc(C#N)ccc21 [Example 25, trans-8-((4-((cyclopropylmethyl)(3-fluorophenyl)amino)cyclohexyl)(methyl)amino)-5-methyl-6-oxo-5,6-dihydro-1,5-naphthyridine-2-carbonitrile]
IC50 (DGKα): ≥ 1 µM | IC50 (DGKζ): ≥ 1 µM

Cn1c(=O)c(C#N)c(N(C)[C@H]2CC[C@@H](N(CC3CC3)c3cccc(F)c3)CC2)c2nc(C#N)ccc21 [Example 26, cis-8-((4-((cyclopropylmethyl)(3-fluorophenyl)amino)cyclohexyl)(methyl)amino)-5-methyl-6-oxo-5,6-dihydro-1,5-naphthyridine-2,7-dicarbonitrile]
IC50 (DGKα): 0.01 to 0.1 µM | IC50 (DGKζ): 0.1 to 1 µM

Cn1c(=O)c(C#N)c(N(C)[C@H]2CC[C@H](N(CC3CC3)c3cccc(F)c3)CC2)c2nc(C#N)ccc21 [Example 27, trans-8-((4-((cyclopropylmethyl)(3-fluorophenyl)amino)cyclohexyl)(methyl)amino)-5-methyl-6-oxo-5,6-dihydro-1,5-naphthyridine-2,7-dicarbonitrile]
IC50 (DGKα): 0.1 to 1 µM | IC50 (DGKζ): 0.1 to 1 µM

COc1cccc(N(CC2CC2)[C@H]2CC[C@@H](N(C)c3c(C#N)c(=O)n(C)c4ccc(C#N)nc34)CC2)c1 [Example 28, cis-8-((4-((cyclopropylmethyl)(3-methoxyphenyl)amino)cyclohexyl)(methyl)amino)-5-methyl-6-oxo-5,6-dihydro-1,5-naphthyridine-2,7-dicarbonitrile]
IC50 (DGKα): 0.01 to 0.1 µM | IC50 (DGKζ): 0.1 to 1 µM

COc1cccc(N(CC2CC2)[C@H]2CC[C@H](N(C)c3c(C#N)c(=O)n(C)c4ccc(C#N)nc34)CC2)c1 [Example 29, trans-8-((4-((cyclopropylmethyl)(3-methoxyphenyl)amino)cyclohexyl)(methyl)amino)-5-methyl-6-oxo-5,6-dihydro-1,5-naphthyridine-2,7-dicarbonitrile]
IC50 (DGKα): 0.1 to 1 µM | IC50 (DGKζ): ≥ 1 µM

Cn1c(=O)c(C#N)c(N(C)[C@H]2CC[C@@H](N(CC3CC3)c3ccc(F)cc3)CC2)c2nc(C#N)ccc21 [Example 30, cis-8-((4-((cyclopropylmethyl)(4-fluorophenyl)amino)cyclohexyl)(methyl)amino)-5-methyl-6-oxo-5,6-dihydro-1,5-naphthyridine-2,7-dicarbonitrile]
IC50 (DGKα): < 0.01 µM | IC50 (DGKζ): 0.01 to 0.1 µM

COc1cc(F)ccc1N(CC1CC1)[C@H]1CC[C@@H](N(C)c2c(C#N)c(=O)n(C)c3ccc(C#N)nc23)CC1 [Example 31, cis-8-((4-((cyclopropylmethyl)(4-fluoro-2-methoxyphenyl)amino)cyclohexyl)(methyl)amino)-5-methyl-6-oxo-5,6-dihydro-1,5-naphthyridine-2,7-dicarbonitrile]
IC50 (DGKα): 0.1 to 1 µM | IC50 (DGKζ): 0.1 to 1 µM
